Test results published in the supplement of paper PMC10307832.

Columns and labels:
Assay in all cases: relative viability (nuclei count vs DMSO), 5 days (fraction); higher = more cells survive
SGI-1776 + Luminespib = compound: CN1CCC(CNc2ccc3ncc(-c4cccc(OC(F)(F)F)c4)n3n2)CC1 [SGI-1776] + CCNC(=O)c1noc(-c2cc(C(C)C)c(O)cc2O)c1-c1ccc(CN2CCOCC2)cc1 [Luminespib] (partner 0.01 µM)
In short: (§1)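 One day after seeding in 1536-well plates, lung cancer cell lines were dosed by pin tool. Dosing was either single-drug or a fixed anchor-drug dose plus five library-drug doses (not always all listed) in √10 steps. After 5 days, nuclei were stained in one fix-and-stain step and counted on 4× images, and relative viability is the nuclei count of treated wells over that of vehicle wells, given as the median of duplicate plates.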

SGI-1776 + Bortezomib = compound: CN1CCC(CNc2ccc3ncc(-c4cccc(OC(F)(F)F)c4)n3n2)CC1 [SGI-1776] + CC(C)C[C@H](NC(=O)[C@H](Cc1ccccc1)NC(=O)c1cnccn1)B(O)O [Bortezomib] (partner 0.002 µM)
In short: as §1

Entinostat + Luminespib = compound: Nc1ccccc1NC(=O)c1ccc(CNC(=O)OCc2cccnc2)cc1 [Entinostat] + CCNC(=O)c1noc(-c2cc(C(C)C)c(O)cc2O)c1-c1ccc(CN2CCOCC2)cc1 [Luminespib] (partner 0.01 µM)
In short: as §1

[1] = compound: C1COCCN1C2=NC(=NC3=C2OC4=C3C=CC=N4)C5=CC(=CC=C5)NC(=O)C6=CN=C(C=C6)N + Nc1nc2[nH]cc(CCc3ccc(C(=O)N[C@@H](CCC(=O)O)C(=O)O)cc3)c2c(=O)[nH]1 [Pemetrexed] (partner 0.2 µM)
In short: as §1

| Cell Line | relative viability (SGI-1776 + Luminespib; first compound 0.08 µM) | relative viability (SGI-1776 + Luminespib; first compound 0.8 µM) | relative viability (SGI-1776 + Luminespib; first compound 2.53 µM) | relative viability (SGI-1776 + Luminespib; first compound 8 µM) | relative viability (SGI-1776 + Bortezomib; first compound 0.08 µM) | relative viability (SGI-1776 + Bortezomib; first compound 0.8 µM) | relative viability (SGI-1776 + Bortezomib; first compound 2.53 µM) | relative viability (SGI-1776 + Bortezomib; first compound 8 µM) | relative viability (Entinostat + Luminespib; first compound 0.02 µM) | relative viability (Entinostat + Luminespib; first compound 0.06325 µM) | relative viability (Entinostat + Luminespib; first compound 0.2 µM) | relative viability (Entinostat + Luminespib; first compound 0.6325 µM) | relative viability (Entinostat + Luminespib; first compound 2 µM) | relative viability ([1]; first compound 0.02 µM) | relative viability ([1]; first compound 0.06325 µM) | relative viability ([1]; first compound 0.2 µM) | relative viability ([1]; first compound 0.6325 µM) | relative viability ([1]; first compound 2 µM) |
| --- | --- | --- | --- | --- | --- | --- | --- | --- | --- | --- | --- | --- | --- | --- | --- | --- | --- | --- |
| HCC-44 | 1.06 | 0.953 | 1.01 | 0.693 | 0.942 | 0.908 | 0.98 | 0.895 | 1.04 | 0.889 | 0.741 | 0.505 | 0.324 | 0.616 | 0.639 | 0.676 | 0.682 | 0.653 |
| HCC-78 | – | – | – | – | 0.48 | 0.516 | 0.516 | 0.45 | – | – | – | – | – | 0.913 | 0.944 | 0.926 | 0.929 | 0.64 |
| HCC-366 | – | – | – | – | 0.919 | 1.11 | 0.98 | 1.12 | – | – | – | – | – | 0.186 | 0.189 | 0.195 | 0.219 | 0.0985 |
| HCC-827 | 0.551 | 0.622 | 0.782 | 0.348 | 1.11 | 0.984 | 1.05 | 1.04 | 0.505 | 0.309 | 0.401 | 0.202 | 0.197 | 0.249 | 0.284 | 0.262 | 0.278 | 0.265 |
| HOP-62 | 0.835 | 0.93 | 0.941 | 0.89 | 0.862 | 0.914 | 0.74 | 0.632 | 0.944 | 0.818 | 0.824 | 0.71 | 0.431 | 0.298 | 0.3 | 0.301 | 0.29 | 0.162 |
| IA-LM | – | – | – | – | 0.844 | 0.736 | 0.918 | 0.877 | – | – | – | – | – | – | – | – | – | – |
| LC-2-ad | 0.983 | 1.09 | 1.06 | 0.769 | 1.06 | 0.976 | 1.03 | 0.987 | 1.04 | 0.936 | 0.816 | 0.65 | 0.298 | 0.263 | 0.292 | 0.289 | 0.253 | 0.262 |
| LK-2 | 0.17 | 0.188 | 0.257 | 0.159 | – | – | – | – | 0.18 | 0.192 | 0.178 | 0.188 | 0.178 | 0.291 | 0.238 | 0.284 | 0.208 | 0.24 |
| NCI-H358 | 0.729 | 0.506 | 0.432 | 0.315 | – | – | – | – | 0.48 | 0.484 | 0.407 | 0.238 | 0.159 | 0.176 | 0.182 | 0.137 | 0.222 | 0.135 |
| NCI-H522 | 1.16 | 1.1 | 1.09 | 0.972 | – | – | – | – | 1.21 | 1.33 | 1.38 | 1.1 | 0.649 | 0.915 | 0.966 | 0.941 | 0.972 | 0.963 |
| NCI-H727 | 0.408 | 0.337 | 0.311 | 0.253 | 0.888 | 1.13 | 0.855 | 0.724 | 0.326 | 0.413 | 0.364 | 0.328 | 0.459 | – | – | – | – | – |
| NCI-H1299 | – | – | – | – | 1.02 | 1.04 | 1.02 | 1.04 | – | – | – | – | – | – | – | – | – | – |
| NCI-H1395 | 0.768 | 0.772 | 0.573 | 0.414 | – | – | – | – | 0.711 | 0.663 | 0.634 | 0.659 | 0.6 | 0.941 | 0.87 | 0.735 | 0.643 | 0.692 |
| NCI-H1623 | 0.468 | 0.612 | 0.576 | 0.506 | – | – | – | – | 0.632 | 0.554 | 0.443 | 0.472 | 0.279 | – | – | – | – | – |
| NCI-H1648 | – | – | – | – | – | – | – | – | – | – | – | – | – | 0.743 | 0.893 | 0.819 | 0.754 | 0.554 |
| NCI-H1703 | – | – | – | – | 0.328 | 0.407 | 0.272 | 0.131 | – | – | – | – | – | – | – | – | – | – |
| NCI-H1793 | 0.217 | 0.163 | 0.286 | 0.161 | – | – | – | – | 0.224 | 0.157 | 0.177 | 0.171 | 0.161 | 0.818 | 0.86 | 0.626 | 0.621 | 0.632 |
| NCI-H1944 | 0.871 | 0.67 | 0.669 | 0.618 | – | – | – | – | 0.73 | 0.625 | 0.397 | 0.329 | 0.183 | 0.65 | 0.719 | 0.589 | 0.64 | 0.545 |
| NCI-H2170 | 0.723 | 0.669 | 0.668 | 0.419 | – | – | – | – | 0.778 | 0.654 | 0.643 | 0.47 | 0.329 | 0.263 | 0.274 | 0.259 | 0.258 | 0.247 |
| NCI-H2342 | 0.695 | 0.767 | 0.721 | 0.64 | – | – | – | – | 0.69 | 0.729 | 0.744 | 0.589 | 0.553 | 0.839 | 0.739 | 0.753 | 0.796 | 0.713 |
| SK-MES-1 | 0.856 | 0.849 | 0.395 | 0.386 | – | – | – | – | 0.798 | 1.03 | 0.891 | 0.882 | 0.353 | 0.984 | 0.958 | 0.827 | 0.86 | 0.646 |
| SW 900 | 0.178 | 0.173 | 0.208 | 0.166 | – | – | – | – | 0.185 | 0.157 | 0.222 | 0.163 | 0.202 | 0.497 | 0.476 | 0.455 | 0.469 | 0.254 |
